Series [1] has as its system Streptococcus pyogenes SSI-9. The series is described as follows: Antibacterial activity assay of bead-derived peptides (three concentrations). Type of series: cell-based. The arrangement: key: +++: inhibition by the 640-fold diluted peptide solution; ++: inhibition by the 160-fold diluted solution; +: inhibition by the 40-fold diluted solution; -: no inhibition. Particulars: S. pyogenes, bead-derived peptide solution, three concentrations. The method in brief:
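First, each peptide stock was diluted 4- and 16-fold in DMSO; next, the three solutions were mixed with S. pyogenes SSI-9 suspension (2 × 10^5 CFU) in cation-adjusted Mueller Hinton Broth plus 5% laked horse blood; finally, plates stood 18 h at 37 °C before checking for grown-cell precipitation.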

For series [2], the system named is P388 mouse leukemia cells. Conditions: 92 h. A digest of the protocol:
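Peptide stocks diluted 250× in growth medium; P388 cells 1 × 10^4 cells/mL final; 37 °C, 5% CO2, 92 h. WST-1 + 1-methoxy PMS, 4 h, A415. Output: % viability.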

Series [3] can be described thus: H+/Na+ transport assay of bead-derived peptides (one-point).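 Also: relative to parent gramicidin A activity set to 1.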 Type of series: biochemical. Further details: key: relative activity; mean of two control wells = 1.00. Conditions: bead-derived peptide solution, EYPC/EYPG LUVs. A digest of the protocol: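 Miniaturized 96-well format. LUVs with entrapped pyranine (1.0 mM) were exposed to peptide for 30 min at RT. Intensities were expressed relative to full lysis by Triton X-100 and no treatment, with control-well mean = 1.00.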

Where a SMILES comes first, the peptide text is derived from it. [ ]: non-standard residue; d: D form. The star is where a group is joined. NHCH2CH2OH = OCCN*; For = O=C*

For `CNC(=O)C[C@@H](NC(=O)[C@@H](NC(=O)[C@@H](CC(C)C)NC(=O)[C@H](C)NC(=O)[C@@H](CC(C)C)NC(=O)[C@H](C)NC(=O)CNC(=O)[C@@H](NC=O)C(C)C)C(C)C)C(=O)N[C@@H](Cc1c[nH]c2ccccc12)C(=O)N[C@H](CC(C)C)C(=O)N[C@@H](Cc1c[nH]c2ccccc12)C(=O)N[C@@H](C(=O)N[C@@H](Cc1c[nH]c2ccccc12)C(=O)N[C@H](CC(C)C)C(=O)N[C@@H](Cc1c[nH]c2ccccc12)C(=O)NCCO)C(C)C` [compound 1479] (For-VGA[dL]A[dL]V[dD](NHMe)W[dL]W[dV]W[dL]W-NHCH2CH2OH), the antibacterial activity result in series [1] is listed as “-”. In series [2], this compound gave a cell viability/% of 100.0%. Further, the “H+/Na+ transport activity normalized against the value of 1 (1.00)” value (shortened to “H+/Na+ transport activity normalized”) in series [3] was 1.19.
For `CC(C)C[C@@H](NC(=O)[C@H](C)NC(=O)[C@H](NC(=O)[C@H](C)NC(=O)CNC(=O)[C@@H](NC=O)C(C)C)[C@H](C)O)C(=O)N[C@H](C(=O)N[C@H](CC(C)C)C(=O)N[C@@H](Cc1c[nH]c2ccccc12)C(=O)N[C@H](CC(C)C)C(=O)N[C@@H](Cc1c[nH]c2ccccc12)C(=O)N[C@@H](C(=O)N[C@@H](Cc1c[nH]c2ccccc12)C(=O)N[C@H](CC(C)C)C(=O)N[C@@H](Cc1c[nH]c2ccccc12)C(=O)NCCO)C(C)C)C(C)C` [compound 1516] (For-VGA[dT]A[dL]V[dL]W[dL]W[dV]W[dL]W-NHCH2CH2OH), in that order: “-”, 100.0% and 1.06.
For `CC(C)C[C@@H](NC(=O)[C@H](C)NC(=O)CNC(=O)[C@@H](NC=O)C(C)C)C(=O)N[C@@H](C)C(=O)N[C@@H](C(=O)N[C@H](C(=O)N[C@H](CC(C)C)C(=O)N[C@@H](Cc1c[nH]c2ccccc12)C(=O)N[C@@H](C(=O)N[C@@H](Cc1c[nH]c2ccccc12)C(=O)N[C@H](CC(C)C)C(=O)N[C@@H](Cc1c[nH]c2ccccc12)C(=O)N[C@@H](C(=O)N[C@@H](Cc1c[nH]c2ccccc12)C(=O)NCCO)[C@H](C)O)C(C)C)C(C)C)C(C)C` [compound 1522] (For-VGA[dL]A[dV]V[dL]W[dV]W[dL]W[dT]W-NHCH2CH2OH) the same measures were “-”, 100.0% and 1.03.
For the compound `CC(C)C[C@@H](NC(=O)[C@H](C)NC(=O)CNC(=O)[C@@H](NC=O)C(C)C)C(=O)N[C@@H](C)C(=O)N[C@H](CC(C)C)C(=O)N[C@H](C(=O)N[C@H](CC(C)C)C(=O)N[C@@H](Cc1c[nH]c2ccccc12)C(=O)N[C@@H](C(=O)N[C@@H](Cc1c[nH]c2ccccc12)C(=O)N[C@H](CC(C)C)C(=O)N[C@@H](Cc1c[nH]c2ccccc12)C(=O)N[C@@H](C(=O)N[C@@H](Cc1c[nH]c2ccccc12)C(=O)NCCO)C(C)C)C(C)C)C(C)C` [compound 1751] (For-VGA[dL]A[dL]V[dL]W[dV]W[dL]W[dV]W-NHCH2CH2OH), the antibacterial activity entry in series [1] was “-”. The compound further came in with a cell viability/% in series [2] of 0.0%. In addition, the “H+/Na+ transport activity normalized” value in series [3] is recorded as 1.05.
For `CC(C)C[C@@H](NC(=O)[C@H](Cc1c[nH]c2ccccc12)NC(=O)[C@H](NC(=O)[C@H](Cc1c[nH]c2ccccc12)NC(=O)[C@@H](CC(C)C)NC(=O)[C@H](Cc1c[nH]c2ccccc12)NC(=O)[C@H](NC(=O)[C@@H](NC(=O)[C@H](NC(=O)[C@H](C)NC(=O)[C@H](NC(=O)[C@H](C)NC(=O)CNC(=O)[C@@H](NC=O)C(C)C)C(C)C)C(C)C)C(C)C)C(C)C)C(C)C)C(=O)N[C@@H](Cc1c[nH]c2ccccc12)C(=O)NCCO` [compound 1844] (For-VGA[dV]A[dV]V[dV]W[dL]W[dV]W[dL]W-NHCH2CH2OH) the same measures were “++”, 47.9% and 1.18.
On to `CC(C)C[C@@H](NC(=O)[C@H](Cc1c[nH]c2ccccc12)NC(=O)[C@H](NC(=O)[C@H](Cc1c[nH]c2ccccc12)NC(=O)[C@@H](CC(C)C)NC(=O)[C@H](Cc1c[nH]c2ccccc12)NC(=O)[C@H](NC(=O)[C@@H](NC(=O)[C@H](NC(=O)[C@H](C)NC(=O)[C@H](NC(=O)[C@H](C)NC(=O)CNC(=O)[C@@H](NC=O)C(C)C)C(C)C)C(C)C)C(C)C)C(C)C)[C@H](C)O)C(=O)N[C@@H](Cc1c[nH]c2ccccc12)C(=O)NCCO` [compound 1849] (For-VGA[dV]A[dV]V[dV]W[dL]W[dT]W[dL]W-NHCH2CH2OH), for which the antibacterial activity entry in series [1] is on record as “+”. The same compound registered a cell viability/% in series [2] of 100.0%. Also, in series [3], the “H+/Na+ transport activity normalized” value stood at 1.07.
For `CC(C)C[C@@H](NC(=O)[C@@H](NC(=O)[C@H](NC(=O)[C@H](C)NC(=O)[C@H](NC(=O)[C@H](C)NC(=O)CNC(=O)[C@@H](NC=O)C(C)C)C(C)C)C(C)C)C(C)C)C(=O)N[C@@H](Cc1c[nH]c2ccccc12)C(=O)N[C@@H](C(=O)N[C@@H](Cc1c[nH]c2ccccc12)C(=O)N[C@@H](C(=O)N[C@@H](Cc1c[nH]c2ccccc12)C(=O)N[C@@H](C(=O)N[C@@H](Cc1c[nH]c2ccccc12)C(=O)NCCO)C(C)C)C(C)C)C(C)C` [compound 1873] (For-VGA[dV]A[dV]V[dL]W[dV]W[dV]W[dV]W-NHCH2CH2OH), the antibacterial activity entry in series [1] is “-”. For the same compound, in series [2], the cell viability/% was found to be 100.0%. For the same compound, the “H+/Na+ transport activity normalized” value in series [3] was 1.09.
As for `CNC(=O)C[C@@H](NC(=O)[C@H](Cc1c[nH]c2ccccc12)NC(=O)[C@@H](CC(C)C)NC(=O)[C@H](Cc1c[nH]c2ccccc12)NC(=O)[C@@H](CC(C)C)NC(=O)[C@H](Cc1c[nH]c2ccccc12)NC(=O)[C@H](NC(=O)[C@@H](NC(=O)[C@H](NC(=O)[C@H](C)NC(=O)[C@@H](CC(C)C)NC(=O)[C@H](C)NC(=O)CNC(=O)[C@@H](NC=O)C(C)C)C(C)C)C(C)C)C(C)C)C(=O)N[C@@H](Cc1c[nH]c2ccccc12)C(=O)NCCO` [compound 2020] (For-VGA[dL]A[dV]V[dV]W[dL]W[dL]W[dD](NHMe)W-NHCH2CH2OH), in series [1], the antibacterial activity result was “-”. This compound yielded a cell viability/% in series [2] of 100.0%. Moreover, the “H+/Na+ transport activity normalized” value in series [3] is listed as 1.02.
Turning to `CC(C)C[C@@H](NC(=O)[C@H](C)NC(=O)CNC(=O)[C@@H](NC=O)C(C)C)C(=O)N[C@@H](C)C(=O)N[C@@H](C(=O)N[C@H](C(=O)N[C@@H](C(=O)N[C@@H](Cc1c[nH]c2ccccc12)C(=O)N[C@@H](C(=O)N[C@@H](Cc1c[nH]c2ccccc12)C(=O)N[C@H](CC(C)C)C(=O)N[C@@H](Cc1c[nH]c2ccccc12)C(=O)N[C@H](CC(C)C)C(=O)N[C@@H](Cc1c[nH]c2ccccc12)C(=O)NCCO)C(C)C)C(C)C)C(C)C)C(C)C` [compound 2082] (For-VGA[dL]A[dV]V[dV]W[dV]W[dL]W[dL]W-NHCH2CH2OH), in series [1], the antibacterial activity entry is listed as “+”. In addition, in series [2], the cell viability/% turned out to be 100.0%. Further, in series [3], the “H+/Na+ transport activity normalized” value is 1.16.
For `CC(C)C[C@@H](NC(=O)[C@H](Cc1c[nH]c2ccccc12)NC(=O)[C@H](NC(=O)[C@H](Cc1c[nH]c2ccccc12)NC(=O)[C@@H](CC(C)C)NC(=O)[C@@H](NC(=O)[C@H](NC(=O)[C@H](C)NC(=O)[C@H](NC(=O)[C@H](C)NC(=O)CNC(=O)[C@@H](NC=O)C(C)C)C(C)C)C(C)C)C(C)C)C(C)C)C(=O)N[C@@H](Cc1c[nH]c2ccccc12)C(=O)N[C@@H](C(=O)N[C@@H](Cc1c[nH]c2ccccc12)C(=O)NCCO)C(C)C` [compound 2120] (For-VGA[dV]A[dV]V[dL]W[dV]W[dL]W[dV]W-NHCH2CH2OH), in series [1], the antibacterial activity result is listed as “++”. In series [2], this compound gave a cell viability/% of 17.0%. Moreover, the “H+/Na+ transport activity normalized” value in series [3] is reported as 1.24.
Consider `CC(C)C[C@@H](NC(=O)[C@H](C)NC(=O)CNC(=O)[C@@H](NC=O)C(C)C)C(=O)N[C@@H](C)C(=O)N[C@H](CC(C)C)C(=O)N[C@H](C(=O)N[C@@H](C(=O)N[C@@H](Cc1c[nH]c2ccccc12)C(=O)N[C@@H](C(=O)N[C@@H](Cc1c[nH]c2ccccc12)C(=O)N[C@H](CC(C)C)C(=O)N[C@@H](Cc1c[nH]c2ccccc12)C(=O)N[C@H](CC(C)C)C(=O)N[C@@H](Cc1c[nH]c2ccccc12)C(=O)NCCO)C(C)C)[C@H](C)O)C(C)C` [compound 2158] (For-VGA[dL]A[dL]V[dT]W[dV]W[dL]W[dL]W-NHCH2CH2OH), for which the antibacterial activity entry in series [1] is given as “-”. In series [2], the cell viability/% was 100.0%. Also, in series [3], the “H+/Na+ transport activity normalized” value is reported as 1.18.
Consider `CC(C)C[C@@H](NC(=O)[C@H](C)NC(=O)CNC(=O)[C@@H](NC=O)C(C)C)C(=O)N[C@@H](C)C(=O)N[C@@H](C(=O)N[C@H](C(=O)N[C@@H](C(=O)N[C@@H](Cc1c[nH]c2ccccc12)C(=O)N[C@H](CC(C)C)C(=O)N[C@@H](Cc1c[nH]c2ccccc12)C(=O)N[C@H](CC(C)C)C(=O)N[C@@H](Cc1c[nH]c2ccccc12)C(=O)N[C@H](CC(C)C)C(=O)N[C@@H](Cc1c[nH]c2ccccc12)C(=O)NCCO)[C@H](C)O)C(C)C)C(C)C` [compound 2172] (For-VGA[dL]A[dV]V[dT]W[dL]W[dL]W[dL]W-NHCH2CH2OH), for which, in series [1], the antibacterial activity result is reported as “+”. Further, the cell viability/% in series [2] is reported as 100.0%. For the same compound, the “H+/Na+ transport activity normalized” value in series [3] was 1.22.

Source of the values: article PMC7531004, “Discovery of gramicidin A analogues with altered activities by multidimensional screening of a one-bead-one-compound library” (Nature Communications, 2020).
